# Source: the METLIN SMRT retention time set (Domingo-Almenara et al. 2019)
# Experiment: gradient 5% acetonitrile 3 min, to 50% in 2 min, to 85% in 15 min, held 3 min, 100 µL/min
# Settings: column: Zorbax Extend-C18 2.1 x 50 mm; eluents: water / acetonitrile, 0.1% formic acid
# Procedure, shortened: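 Mixtures of ~100 pure standards were chromatographed on a Zorbax Extend-C18 column (2.1 × 50 mm, 1.8 μm) at 100 μL/min using water and acetonitrile, each with 0.1% formic acid. Detection used a quadrupole time-of-flight mass spectrometer in positive and negative ionization mode, and data collection spanned 3 months. Retention time was obtained from adduct peaks picked computationally and each checked manually.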
row,SMILES,RP-LC retention time
1,O=C(Nc1ccc(F)cc1Cl)c1c(O)c2cccnc2n(-c2cccc(F)c2)c1=O,1300 s
2,COc1ccc(-c2nnc(-c3ccc(C)c(S(=O)(=O)N4CCC(C)CC4)c3)o2)cc1OC,1150 s
3,O=C(c1ccco1)N1CCN(C(=O)c2nc(-c3ccc(Cl)cc3)n3c2CCCCC3)CC1,741 s
4,Cn1c(=O)c(N2CCN(C(=O)c3cc(F)ccc3F)CC2)nc2cccnc21,834 s
5,O=S(=O)(c1cccnc1)N1CCCCC1c1nncn1CC1CC1 (stereo not drawn),662 s
6,Cc1nc2c(C)cccn2c(=O)c1NC(=O)COc1ccc(Cl)cc1Cl,838 s
7,Cc1ccc(C)c2sc(OC3CCN(C(=O)c4ccc(=O)n(C)n4)CC3)nc12,911 s
8,O=C(CC(c1cccc(F)c1)n1cccc1)N1CCN(c2ccccn2)CC1 (stereo not drawn),686 s
9,CCC(=O)Nc1ccc(CCc2nc3ccc(C(=O)NC4CCCC4)cc3[nH]2)cc1,625 s
10,O=C(Cn1c(CO)nc2ccccc21)N1CCCc2ccccc21,628 s
11,CCNS(=O)(=O)c1cccnc1Nc1cc(C)cc(C)c1,1060 s
12,COC(=O)c1ccc(NC(=O)C(=O)NCC2CCN(C(=O)Oc3ccccc3)CC2)cc1,868 s
13,Cc1noc(C)c1-c1ccc(S(=O)(=O)NCc2ccc3c(c2)OCO3)cc1,894 s
14,Cc1sc(-c2noc(C3CCC3)n2)cc1S(=O)(=O)N1CCC(C(=O)NCc2ccco2)CC1,1010 s
15,CCc1cccc(-n2nnc(C(=O)N3CCC4(CC3)OCCO4)c2-c2ccncc2)c1,744 s
16,Cc1ccccc1NC(=O)C1CCN(S(=O)(=O)c2cc(-c3noc(C4CCC4)n3)cs2)CC1,1060 s
17,Cc1ccc(F)cc1NS(=O)(=O)c1ccc2c(c1)C(=O)N(C)c1ncccc1O2,924 s
18,O=C(Cn1cccc(-c2nc(-c3ccc(F)cc3)no2)c1=O)Nc1ccccc1Br,912 s
19,Cc1ncc(C(=O)NC2CC2)c(=O)n1CC(=O)Nc1cc(F)ccc1F,705 s
20,COc1ccc(Cl)cc1C(=O)NCc1c(C)nc2sc(C)nn12,673 s
21,COc1ccc(C(=O)N2CCCC2c2nc(-c3ccc(OC)c(OC)c3)no2)cc1F (stereo not drawn),876 s
22,O=C(Cn1cccn1)NCc1ccc(OCc2ccccc2)cc1,776 s

row,SMILES,RP-LC retention time
1,O=C(Cc1cccc2ccccc12)Nc1cc(-c2ccccn2)no1,878 s
2,COC(=O)c1cnc(N2CCN(c3cccc(C)c3)C(C)C2)c2ccccc12 (stereo not drawn),1040 s
3,COc1ccc(NC(=O)N2CCC3(C2)C(=O)Nc2ccccc23)cc1 (stereo not drawn),702 s
4,Cc1ccc(CC(=O)N2CCC3(CC2)NC(=O)c2ccc(F)cc2N3C)cc1,787 s
5,O=C(Oc1ccc2c(c1)O/C(=C\c1ccncc1)C2=O)c1ccc2c(c1)OCO2,725 s
6,Cc1ccc(N2CCC(NC(=O)NCCc3ccccc3)C2=O)cc1C (stereo not drawn),790 s
7,COc1ccc(S(=O)(=O)N2CCN(c3cc(C)c4ccccc4n3)CC2)cc1,701 s
8,Cc1cccc(-c2ncccc2CNS(=O)(=O)c2ccc(F)c(F)c2)c1,755 s
9,O=S(=O)(CCc1noc(-c2ccc3c(c2)OCO3)n1)c1ccc(Cl)cc1,979 s
10,CCc1ccccc1N(C)C(=O)Cc1c(C(=O)O)c(C)cn1C,815 s
11,O=C(NCc1ccco1)c1c(O)c2cccnc2n(Cc2ccccc2)c1=O,1250 s
12,O=C1NC2(CCN(C(=O)Nc3ccc(Cl)cc3)CC2)N=C1c1ccccc1,829 s
13,CCC1(O)CCC12CCN(C(=O)CC1CCN(C(C)=O)CC1)CC2 (stereo not drawn),629 s
14,CCOc1ccc(/C=C/C(=O)Nc2nc(-c3ccc(C)cc3)c(C)s2)cc1,726 s
15,CC(=O)Nc1cccc(-c2nc(-c3ccc4nnn(C(C)C)c4c3)no2)c1,859 s
16,O=C1c2cc(O)cc(O)c2OC[C@@H]1c1ccc(O)c(O)c1,834 s
17,CCOC(=O)c1cc(S(=O)(=O)N2CCCC2C(=O)NC2CCCCC2)cn1C (stereo not drawn),875 s
18,O=C(O)C1CCN(c2nc3ccc(-c4cccs4)nc3s2)CC1,837 s
19,Cc1ccc(S(=O)(=O)N2CC=C(N)N2)cc1,684 s
20,COc1ccc(NC(=O)N2CCc3c(c(=O)c4cc(C)cc(C)c4n3C)C2)cc1OC,628 s
21,CCn1cnc2ccc(-c3noc(COc4ccccc4OC)n3)cc21,712 s
22,CC1(C)C(=O)Nc2ccc(S(=O)(=O)N3CCC(c4noc(-c5ccccn5)n4)C3)cc21 (stereo not drawn),705 s

row,SMILES,RP-LC retention time
1,COc1ccc(C)cc1NC(=O)Cn1ncc2c(c1=O)N(C1CC1)C(=O)CS2,794 s
2,CN(CC1CCOCC1)S(=O)(=O)Cc1ccccc1,787 s
3,Cc1ccc(S(=O)(=O)N2CCOCC2)cc1[N+](=O)[O-],751 s
4,CCn1cc(-c2nc(CC(=O)Nc3ccc(F)c(C)c3)cs2)c2cccnc21,902 s
5,CCOc1ccc(-n2cc(C(=O)OCC(=O)OC(C)(C)C)c3ccccc3c2=O)cc1,1220 s
6,CCC(=O)N(C1CCOCC1)C1CCN(Cc2cn(CC)c3ccccc23)CC1,674 s
7,O=C(Cn1nc2n(c1=O)CCCC2)Nc1cccc(C(F)(F)F)c1,705 s
8,CC(=O)N(Cc1nn(C)c2c1CN(Cc1sccc1C)CC2)c1ccccc1,611 s
9,COc1ccc(OC)c(NS(=O)(=O)c2cc3n(c2)CCCNC3=O)c1,639 s
10,CC(C)CN1CCn2cc(S(=O)(=O)Nc3cccc(F)c3)cc2C1=O,786 s
11,Cc1ccc(C)c(NC(=O)Cn2c(=O)n(-c3ccccc3)c3ncccc32)c1,852 s
12,COCCn1cc2c3c(cccc31)CN(C(=O)NCc1ccc(OC)cc1)CC2,822 s
13,CC(C)CN1CCN(S(=O)(=O)c2cc(-c3nnc(C4CC4)o3)co2)CC1,622 s
14,Cc1ccc(-c2cc3n(n2)CCCN(C(=O)c2ccoc2)C3)cc1,810 s
15,COc1ccc(-c2noc(-c3nn(-c4cccc(OC)c4)ccc3=O)n2)cc1,876 s
16,Cn1nc(C(=O)N2CCCCC2)c2c1CCN(C(=O)CCC(=O)NCCC1=CCCCC1)C2,744 s
17,O=S(=O)(Nc1ccc(-c2noc(-c3ccc(Cl)cc3)n2)cc1)c1cccs1,1180 s
18,COc1cc(COc2cc(N)c(Cl)cc2C(=O)CCC2CCN(CCNS(C)(=O)=O)CC2)cc(OC)c1,761 s
19,CCN1C(=O)C2(CCN(C(=O)C3CCCCC3)CC2)c2ccccc21,950 s
20,O=C(NC1CCN(c2nnc3ccccn23)CC1)c1cccc(F)c1,640 s
21,CC(C)(C)NC(=O)N1CCC(CNC(=O)C(=O)NCCC2=CCCCC2)CC1,818 s
22,CC(=O)Nc1ccc(OCCOc2ccc([N+](=O)[O-])cc2)cc1,862 s

row,SMILES,RP-LC retention time
1,Cc1ccc(NC(=O)N2CCC(CC(=O)N3CCCCC3)CC2)cc1Cl,861 s
2,COC(=O)CNC(=O)N1CCN(c2nc3ccccc3n(Cc3ccccc3)c2=O)CC1,779 s
3,CCn1cc(CN2CC(F)(F)C[C@H]2COc2ccncc2)c2ccccc21,670 s
4,COCc1nncn1C1CCN(C(=O)C2(c3ccccc3)CC2)CC1,650 s
5,Cc1ccc2c(c1)N(CCCC(=O)Nc1ccc(C)c(C)c1)C(=O)CO2,922 s
6,Fc1ccc(-c2noc(Cc3nnc(-c4ccc(F)cc4)o3)n2)cc1,991 s
7,CCN1C(=O)c2ccccc2Oc2ccc(C(=O)N3CCN(c4cccc(C)c4)C(C)C3)cc21 (stereo not drawn),1020 s
8,O=C(OCc1ccc([N+](=O)[O-])cc1)c1ccc(S(=O)(=O)NCC2CCCO2)cc1 (stereo not drawn),870 s
9,CCOc1ccccc1-n1ccn(Cc2nc(-c3ccc(OC)cc3)no2)c(=O)c1=O,846 s
10,Nc1ncnc2c1c(-c1ccc(Oc3ccccc3)cc1)cn2C1CCCC1,1030 s
11,Cc1ccc(-c2nc(-c3ccc4c(c3)oc(=O)n4C)no2)cc1,1120 s
12,O=C(NC1CCCC1)C1CCN(S(=O)(=O)c2cc(C(=O)N3CCOCC3)cs2)CC1,682 s
13,Cc1ccc(C)c(NC(=O)Cn2nc3n(c2=O)CCCC3)c1,708 s
14,Cc1ccc(-c2nc(-c3ccc(-n4cccn4)nc3)no2)cc1F,1370 s
15,Cc1cc(N2CCCC2)n2nc(CN3CCN(CC(C)C)CC3)nc2n1,549 s
16,O=C(Cc1ccc(Cl)cc1)NC1CCN(c2nnc3ccccn23)CC1,656 s
17,CCOc1ccc(C2Cn3nnc(-c4nc(-c5ccc(OC)cc5)no4)c3CO2)cc1 (stereo not drawn),1160 s
18,Cc1ccc2c(Nc3ccccc3C)c(-c3nc(C)no3)cnc2n1,743 s
19,Cc1nc(-c2cc(S(=O)(=O)NCC(=O)N3CCN(c4ccccc4)CC3)c(C)s2)no1,896 s
20,CSc1ccc(CCNC(=O)C2CCCN(C(=O)c3cc(C)cc(C)c3)C2)cc1 (stereo not drawn),936 s
21,COc1ccc(NC(=O)Cn2ncc3c(N4CCN(c5ccccn5)CC4)ncnc32)cc1,596 s
22,CSc1ncccc1C(=O)N1CCc2nc(C)ncc2C1,606 s
